# Measurements reported in paper PMC11598835 (Viruses, 2024).
# Where two headings read alike, the source gives them in different places.
# How the values were obtained:
# [1] = in vitro; format: cell-based; settings: human
# [2] = biological target: Recombinant SARS-CoV-2 Mpro (Severe acute respiratory syndrome coronavirus 2, UniProt P0DTD1); test: Protease inhibition FRET assay, Mpro; format: biochemical; settings: Mpro 1.5 μM, substrate 50 μM
# [3] = biological target: Recombinant SARS-CoV-2 PLpro (Severe acute respiratory syndrome coronavirus 2, UniProt P0DTD1); test: biochemical; settings: FRET, PLpro 1 μM
# [4] = physchem; format: physicochemical; settings: water, thermodynamic from solid
# [5] = In vivo plasma pharmacokinetics in rats; settings: male, Wistar, ip, rat
# [6] = system: SARS-CoV-2 B.1 lineage isolate
# [7] = system: SARS-CoV-2 B.1 lineage isolate; test: microbe, parasite or virus in culture; settings: Severe acute respiratory syndrome coronavirus 2, Calu-3, 24 h
# [8] = cited from earlier work
# [9] = system: SARS-CoV-2; settings: read-out: EC50, anti-SARS-CoV-2; cited from earlier work
# [10] = system: HIV-1; set-up: method as in ref 15 = [15]; settings: read-out: EC50, antiviral activity for HIV-1; cited from earlier work
# [11] = read-out: Inhibition of Viral Replication in Calu-3 (%)
# [12] = read-out: difference in SARS-CoV-2 inhibition compared to compound 4a
Structure (SMILES),CC50 at 72 h [1] [µM],IC50 [2] [µM],IC50 [3] [µM],SI (CC50/EC50) [6],"selectivity indexes (SI), conclusions [6] [µM]","inhibition at 10 µM [7, 11] [%]",further results
"O=C1c2ccccc2C(=O)c2c1[nH]c1ccccc21 [4a, 5H-Benzo[b]carbazole-6,11-dione]",> 200,0.11 ± 0.05,153 ± 0.1,>266.7,> 50,94.6,"solubility [4]: 1.43 µg/mL; CL/F ([5]; plasma, 5 mg/kg i.p.): 31.2 mL/min/kg; Vd/F ([5]; plasma, 5 mg/kg i.p., read-out: Vz/F): 98 ± 186 L/kg; half-life ([5]; plasma, 5 mg/kg i.p., read-out: t1/2,z (converted)): 37 ± 60 h; Cmax ([5]; in vivo, 5 mg/kg): 770 ± 120 nM; Tmax ([5]; in vivo, 5 mg/kg): 0.333 h; concentration at 24 h ([5]; in vivo, 5 mg/kg): 120 ± 40 nM"
"COc1ccc2[nH]c3c(c2c1)C(=O)c1ccccc1C3=O [4b, 2-Methoxy-5H-benzo[b]carbazole-6,11-dione]",> 200,0.37 ± 0.05,72.1 ± 0.1,>119.0,> 50,96.2,difference in SARS-CoV-2 inhibition compared to compound 4a ([6]; 10 µM): no significant change
"Cc1ccc2[nH]c3c(c2c1)C(=O)c1ccccc1C3=O [4c, 2-Methyl-5H-benzo[b]carbazole-6,11-dione]",–,–,–,–,–,–,Inhibition of Viral Replication in Calu-3 (%) ([6]; 10 µM): ineffective
"COc1cccc2c3c([nH]c12)C(=O)c1ccccc1C3=O [4d, 4-Methoxy-5H-benzo[b]carbazole-6,11-dione]",> 200,> 200,190.8 ± 0.1,>141.8,> 50,86.5,"inhibition at 10 µM [7, 12]: 8.1%"
"COc1cc(OC)c2[nH]c3c(c2c1)C(=O)c1ccccc1C3=O [4e, 2,4-Dimethoxy-5H-benzo[b]carbazole-6,11-dione]",–,–,–,–,–,47.1,"inhibition at 10 µM [7, 12]: 47.4%"
"CCOC(=O)c1ccc2[nH]c3c(c2c1)C(=O)c1ccccc1C3=O [4f, Ethyl 6,11-dioxo-6,11-dihydro-5H-benzo[b]carbazole-2-carboxylate]",–,–,–,–,–,64,Inhibition of Viral Replication in Calu-3 (%) ([6]; 10 µM): 64%
"O=C1c2ccccc2C(=O)c2c1[nH]c1ccc(F)cc21 [4g, 2-Fluoro-5H-benzo[b]carbazole-6,11-dione]",–,–,–,–,–,69.4,Inhibition of Viral Replication in Calu-3 (%) ([6]; 10 µM): 69%
"O=C1c2ccccc2C(=O)c2c1[nH]c1c2ccc2ccccc21 [4i, 7H-Dibenzo[a,h]carbazole-7,12(13H)-dione]",> 200,> 200,148.7 ± 0.6,>53.7,> 50,85.9,"viability at 72 h, 100 µM [1]: 68%; EC50 [6]: 3.73 ± 0.6 µM; EC50 [7]: < 4 µM"
COC(=O)N[C@H](C(=O)N[C@@H](Cc1ccccc1)[C@@H](O)CN(Cc1ccc(-c2ccccn2)cc1)NC(=O)[C@@H](NC(=O)OC)C(C)(C)C)C(C)(C)C [Atazanavir],–,–,–,–,–,–,"free fraction, experimental data [8]: 14%"
CC(C)C(=O)OC[C@H]1O[C@@H](n2ccc(NO)nc2=O)[C@H](O)[C@@H]1O [Molnupiravir],–,–,–,–,–,–,EC50 [9]: 1.96 µM
CC(C)(C)[C@H](NC(=O)C(F)(F)F)C(=O)N1C[C@H]2[C@@H]([C@H]1C(=O)N[C@H](C#N)C[C@@H]1CCNC1=O)C2(C)C [Nirmatrelvir],–,–,–,–,–,–,EC50 [9]: 0.1 µM
COc1cc2[nH]c3ccccc3c2cc1C=O [O-Methylmukonal],–,–,–,–,–,–,EC50 [10]: 12 µM
CCC(CC)COC(=O)[C@H](C)N[P@](=O)(OC[C@H]1O[C@@](C#N)(c2ccc3c(N)ncnn23)[C@H](O)[C@@H]1O)Oc1ccccc1 [Remdesivir],–,–,–,–,–,–,EC50 [9]: 2.49 µM
